# Experimental data reported in PubChem BioAssay (NCI).
#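 A five-concentration, 48-hour dose response in 96-well plates underlies each endpoint, interpolated linearly between surrounding concentrations. Abbreviation: GI50, concentration required for 50% inhibition of growth. Definition used: TGI = concentration required for complete inhibition of growth.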
# Tests used:
# Assay in all cases: growth of human tumour cells (NCI), 48 h
# TK-10 renal = tested on: TK-10 renal
# OVCAR-8 ovarian = tested on: OVCAR-8 ovarian
# NCI-H226 lung = tested on: NCI-H226 lung
# IGROV1 ovarian = tested on: IGROV1 ovarian
# M14 melanoma = tested on: M14 melanoma
# HCC-2998 colon = tested on: HCC-2998 colon
# SK-MEL-5 melanoma = tested on: SK-MEL-5 melanoma
# NCI-H522 lung = tested on: NCI-H522 lung
# CAKI-1 renal = tested on: CAKI-1 renal
# UO-31 renal = tested on: UO-31 renal
# MOLT-4 leukemia = tested on: MOLT-4 leukemia
# HOP-62 NSCLC = tested on: HOP-62 NSCLC
# NCI-H460 lung = tested on: NCI-H460 lung
# SK-OV-3 ovarian = tested on: SK-OV-3 ovarian
# UACC-257 melanoma = tested on: UACC-257 melanoma
# LOX IMVI melanoma = tested on: LOX IMVI melanoma
# ACHN renal = tested on: ACHN renal
# MALME-3M melanoma = tested on: MALME-3M melanoma
# PC-3 prostate = tested on: PC-3 prostate
# HT29 colon = tested on: HT29 colon
# COLO 205 colon = tested on: COLO 205 colon
# HCT-15 colon = tested on: HCT-15 colon
# SNB-19 CNS = tested on: SNB-19 CNS
# NCI-H23 lung = tested on: NCI-H23 lung
# KM12 colon = tested on: KM12 colon
# 786-0 renal = tested on: 786-0 renal
# A498 renal = tested on: A498 renal
# SR leukemia = tested on: SR leukemia
# SNB-75 CNS = tested on: SNB-75 CNS
# MDA-MB-435 = tested on: MDA-MB-435
# MDA-MB-231 breast = tested on: MDA-MB-231 breast
# EKVX NSCLC = tested on: EKVX NSCLC
# SW-620 colon = tested on: SW-620 colon
# HL-60(TB) leukemia = tested on: HL-60(TB) leukemia
# A549 NSCLC = tested on: A549 NSCLC
# K-562 leukemia = tested on: K-562 leukemia
# SK-MEL-28 melanoma = tested on: SK-MEL-28 melanoma
# SF-268 CNS = tested on: SF-268 CNS
# DU-145 prostate = tested on: DU-145 prostate
# HS 578T breast = tested on: HS 578T breast
# UACC-62 melanoma = tested on: UACC-62 melanoma
# SN12C renal = tested on: SN12C renal
# MCF7 breast = tested on: MCF7 breast
# SF-539 CNS = tested on: SF-539 CNS
# T-47D breast = tested on: T-47D breast
# SF-295 CNS = tested on: SF-295 CNS
# RPMI-8226 leukemia = tested on: RPMI-8226 leukemia
# CCRF-CEM leukemia = tested on: CCRF-CEM leukemia
# BT-549 breast = tested on: BT-549 breast
# HCT-116 colon = tested on: HCT-116 colon
# OVCAR-5 ovarian = tested on: OVCAR-5 ovarian
# OVCAR-3 ovarian = tested on: OVCAR-3 ovarian
# U251 CNS = tested on: U251 CNS
# RXF 393 renal = tested on: RXF 393 renal
# OVCAR-4 ovarian = tested on: OVCAR-4 ovarian
# HOP-92 NSCLC = tested on: HOP-92 NSCLC
# SK-MEL-2 melanoma = tested on: SK-MEL-2 melanoma
# NCI/ADR-RES ovarian = tested on: NCI/ADR-RES ovarian
compound,measurement,setting,value
COc1cc2c(c(OC)c1)[C@H](C)N(Cc1ccccc1)C(C)C2 (stereo partly specified),TGI,TK-10 renal,> 100 µM
same,TGI,OVCAR-8 ovarian,> 100 µM
same,TGI,NCI-H226 lung,84.6 µM
same,TGI,IGROV1 ovarian,> 100 µM
same,TGI,M14 melanoma,> 100 µM
same,TGI,HCC-2998 colon,> 100 µM
same,TGI,SK-MEL-5 melanoma,90.3 µM
same,TGI,NCI-H522 lung,> 100 µM
same,TGI,CAKI-1 renal,> 100 µM
same,TGI,UO-31 renal,> 100 µM
same,TGI,MOLT-4 leukemia,> 100 µM
same,TGI,HOP-62 NSCLC,> 100 µM
same,TGI,NCI-H460 lung,> 100 µM
same,TGI,SK-OV-3 ovarian,> 100 µM
same,TGI,UACC-257 melanoma,> 100 µM
same,TGI,LOX IMVI melanoma,> 100 µM
same,TGI,ACHN renal,> 100 µM
same,TGI,MALME-3M melanoma,> 100 µM
same,TGI,PC-3 prostate,> 100 µM
same,TGI,HT29 colon,75.2 µM
same,TGI,COLO 205 colon,> 100 µM
same,TGI,HCT-15 colon,> 100 µM
same,TGI,SNB-19 CNS,> 100 µM
same,TGI,NCI-H23 lung,> 100 µM
same,TGI,KM12 colon,> 100 µM
same,TGI,786-0 renal,> 100 µM
same,TGI,A498 renal,> 100 µM
same,TGI,SR leukemia,> 100 µM
same,TGI,SNB-75 CNS,> 100 µM
same,TGI,MDA-MB-435,37.8 µM
same,TGI,MDA-MB-231 breast,> 100 µM
same,TGI,EKVX NSCLC,> 100 µM
same,TGI,SW-620 colon,> 100 µM
same,TGI,HL-60(TB) leukemia,24.8 µM
same,TGI,A549 NSCLC,> 100 µM
same,TGI,K-562 leukemia,> 100 µM
same,TGI,SK-MEL-28 melanoma,> 100 µM
same,TGI,SF-268 CNS,> 100 µM
same,TGI,DU-145 prostate,> 100 µM
same,TGI,HS 578T breast,> 100 µM
same,TGI,UACC-62 melanoma,> 100 µM
same,TGI,SN12C renal,> 100 µM
same,TGI,MCF7 breast,> 100 µM
same,TGI,SF-539 CNS,48.4 µM
same,TGI,T-47D breast,> 100 µM
same,TGI,SF-295 CNS,> 100 µM
same,TGI,RPMI-8226 leukemia,> 100 µM
same,TGI,CCRF-CEM leukemia,> 100 µM
same,TGI,BT-549 breast,> 100 µM
same,TGI,HCT-116 colon,> 100 µM
CC(=O)Oc1ccc2c(-c3ccccc3)c(Oc3ccc(Cl)cc3)c(=O)oc2c1,TGI,TK-10 renal,26.3 µM
same,TGI,OVCAR-5 ovarian,32.4 µM
same,TGI,OVCAR-8 ovarian,36.8 µM
same,TGI,NCI-H226 lung,32.5 µM
same,TGI,IGROV1 ovarian,29.4 µM
same,TGI,M14 melanoma,37 µM
same,TGI,HCC-2998 colon,19.7 µM
same,TGI,SK-MEL-5 melanoma,32.6 µM
same,TGI,OVCAR-3 ovarian,28.8 µM
same,TGI,NCI-H522 lung,9.51 µM
same,TGI,CAKI-1 renal,32.3 µM
same,TGI,UO-31 renal,28.4 µM
same,TGI,MOLT-4 leukemia,34.7 µM
same,TGI,HOP-62 NSCLC,34.9 µM
same,TGI,NCI-H460 lung,27.9 µM
same,TGI,UACC-257 melanoma,37.8 µM
same,TGI,LOX IMVI melanoma,36.7 µM
same,TGI,ACHN renal,30.5 µM
same,TGI,MALME-3M melanoma,28.9 µM
same,TGI,PC-3 prostate,37.7 µM
same,TGI,HT29 colon,39.8 µM
same,TGI,HCT-15 colon,10 µM
same,TGI,SNB-19 CNS,30 µM
same,TGI,NCI-H23 lung,44.6 µM
same,TGI,U251 CNS,16.3 µM
same,TGI,RXF 393 renal,33.2 µM
same,TGI,KM12 colon,27.5 µM
same,TGI,786-0 renal,30 µM
same,TGI,A498 renal,30.8 µM
same,TGI,SR leukemia,84.4 µM
same,TGI,SNB-75 CNS,19.5 µM
same,TGI,MDA-MB-231 breast,32.8 µM
same,TGI,EKVX NSCLC,29 µM
same,TGI,SW-620 colon,39.4 µM
same,TGI,HL-60(TB) leukemia,> 100 µM
same,TGI,A549 NSCLC,27.6 µM
same,TGI,K-562 leukemia,31.6 µM
same,TGI,SK-MEL-28 melanoma,31.6 µM
same,TGI,SF-268 CNS,22.6 µM
same,TGI,DU-145 prostate,27.4 µM
same,TGI,HS 578T breast,43.8 µM
same,TGI,OVCAR-4 ovarian,35.8 µM
same,TGI,SN12C renal,39.2 µM
same,TGI,MCF7 breast,39.8 µM
same,TGI,SF-539 CNS,31.1 µM
same,TGI,T-47D breast,21.2 µM
same,TGI,SF-295 CNS,32.4 µM
same,TGI,HOP-92 NSCLC,22.4 µM
same,TGI,RPMI-8226 leukemia,> 100 µM
same,TGI,CCRF-CEM leukemia,35.7 µM
same,TGI,BT-549 breast,32.9 µM
same,TGI,HCT-116 colon,28 µM
CCOC(=O)C1=C(C)NC(c2ccco2)=C(C#N)C1c1cccc([N+](=O)[O-])c1 (stereo unspecified),GI50,TK-10 renal,3.06 µM
same,TGI,TK-10 renal,49.4 µM
same,GI50,OVCAR-5 ovarian,0.0331 µM
same,TGI,OVCAR-5 ovarian,99.5 µM
same,GI50,OVCAR-8 ovarian,0.0149 µM
same,TGI,OVCAR-8 ovarian,13.9 µM
same,GI50,NCI-H226 lung,0.0137 µM
same,TGI,NCI-H226 lung,3.43 µM
same,GI50,IGROV1 ovarian,0.0157 µM
same,TGI,IGROV1 ovarian,3.28 µM
same,GI50,M14 melanoma,0.0132 µM
same,TGI,M14 melanoma,3.28 µM
same,GI50,HCC-2998 colon,0.0558 µM
same,TGI,HCC-2998 colon,0.159 µM
same,TGI,SK-MEL-5 melanoma,0.311 µM
same,GI50,OVCAR-3 ovarian,0.0147 µM
same,TGI,OVCAR-3 ovarian,0.0373 µM
same,TGI,NCI-H522 lung,0.0371 µM
same,GI50,CAKI-1 renal,0.0223 µM
same,TGI,CAKI-1 renal,58.4 µM
same,GI50,UO-31 renal,0.14 µM
same,TGI,UO-31 renal,27.9 µM
same,GI50,MOLT-4 leukemia,0.0445 µM
same,GI50,HOP-62 NSCLC,0.0174 µM
same,TGI,HOP-62 NSCLC,17.2 µM
same,GI50,NCI-H460 lung,0.0633 µM
same,TGI,NCI-H460 lung,0.432 µM
same,GI50,SK-OV-3 ovarian,0.738 µM
same,TGI,SK-OV-3 ovarian,70.9 µM
same,GI50,UACC-257 melanoma,0.0882 µM
same,TGI,UACC-257 melanoma,26.2 µM
same,GI50,LOX IMVI melanoma,0.0587 µM
same,TGI,LOX IMVI melanoma,11.9 µM
same,TGI,ACHN renal,45.7 µM
same,TGI,MALME-3M melanoma,23.6 µM
same,TGI,PC-3 prostate,0.0554 µM
same,GI50,HT29 colon,0.01 µM
same,TGI,HT29 colon,0.562 µM
same,GI50,COLO 205 colon,0.0149 µM
same,TGI,COLO 205 colon,0.039 µM
same,GI50,SK-MEL-2 melanoma,0.0115 µM
same,TGI,SK-MEL-2 melanoma,24.3 µM
same,GI50,SNB-19 CNS,0.0253 µM
same,GI50,NCI-H23 lung,0.0251 µM
same,TGI,NCI-H23 lung,0.0947 µM
same,GI50,U251 CNS,0.0134 µM
same,TGI,U251 CNS,0.059 µM
same,GI50,KM12 colon,0.035 µM
same,TGI,KM12 colon,16 µM
same,GI50,786-0 renal,0.0104 µM
same,TGI,786-0 renal,13.5 µM
same,GI50,SR leukemia,0.0416 µM
same,TGI,SR leukemia,17.5 µM
same,GI50,MDA-MB-231 breast,0.0443 µM
same,TGI,MDA-MB-231 breast,4.53 µM
same,GI50,EKVX NSCLC,0.0263 µM
same,TGI,EKVX NSCLC,88.6 µM
same,GI50,SW-620 colon,0.0101 µM
same,TGI,SW-620 colon,1.73 µM
same,GI50,A549 NSCLC,0.0293 µM
same,GI50,K-562 leukemia,0.0194 µM
same,GI50,SK-MEL-28 melanoma,0.0105 µM
same,TGI,SK-MEL-28 melanoma,22.5 µM
same,GI50,SF-268 CNS,0.0783 µM
same,TGI,SF-268 CNS,41.4 µM
same,GI50,DU-145 prostate,0.0316 µM
same,TGI,DU-145 prostate,4.02 µM
same,TGI,HS 578T breast,0.0885 µM
same,TGI,UACC-62 melanoma,2.27 µM
same,GI50,OVCAR-4 ovarian,4.53 µM
same,TGI,OVCAR-4 ovarian,74.8 µM
same,GI50,SN12C renal,0.0465 µM
same,TGI,SN12C renal,19.7 µM
same,TGI,NCI/ADR-RES ovarian,0.356 µM
same,GI50,MCF7 breast,0.0339 µM
same,TGI,MCF7 breast,20.8 µM
same,TGI,SF-539 CNS,0.0128 µM
same,GI50,T-47D breast,20.9 µM
same,GI50,RPMI-8226 leukemia,0.0658 µM
same,GI50,CCRF-CEM leukemia,0.0186 µM
same,TGI,CCRF-CEM leukemia,32.4 µM
same,GI50,BT-549 breast,0.153 µM
same,TGI,BT-549 breast,18 µM
same,TGI,HCT-116 colon,4.17 µM
